Where “and” joins values, the source holds several entries; their conditions need not be identical. Equal entries are not always repeated. Inconclusive results and toxic doses are left out. Rule for the calls: active = survival T/C of 150% or more; inactive = T/C below 125% in these data.
Tested on: P388 leukemia ip, CD2F1 mice, survival T/C
Assay: NCI In Vivo Anticancer Drug Screen. Data for tumor model P388 Leukemia (intraperitoneal) in CD2F1 (CDF1) mice
Conditions: endpoint: median survival time, higher = longer survival
How it was run: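 Mice carrying the transplanted tumor received test compound or vehicle. Survival was recorded in each group, and the value is the treated-group measurement divided by that of the vehicle-treated control group.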

[1] = dose: 50.0 mg/kg/injection, schedule: Q01DX009 (ip), vehicle: saline with Tween-80
[2] = dose: 100.0 mg/kg/injection, schedule: Q01DX009 (ip), vehicle: saline with Tween-80
[3] = dose: 200.0 mg/kg/injection, schedule: Q01DX009 (ip), vehicle: saline with Tween-80
[4] = dose: 12.5 mg/kg/injection, schedule: Q01DX009 (ip), vehicle: saline with Tween-80
[5] = dose: 25.0 mg/kg/injection, schedule: Q01DX009 (ip), vehicle: saline with Tween-80
[6] = dose: 50.0 mg/kg/injection, schedule: Q01DX005 (ip), vehicle: Klucel (hydroxypropylcellulose) (HPC)
[7] = dose: 100.0 mg/kg/injection, schedule: Q01DX005 (ip), vehicle: Klucel (hydroxypropylcellulose) (HPC)
[8] = dose: 200.0 mg/kg/injection, schedule: Q01DX005 (ip), vehicle: Klucel (hydroxypropylcellulose) (HPC)
[9] = dose: 12.5 mg/kg/injection, schedule: Q01DX009 (ip), vehicle: Klucel (hydroxypropylcellulose) (HPC)
[10] = dose: 100.0 mg/kg/injection, schedule: Q01DX009 (ip), vehicle: Klucel (hydroxypropylcellulose) (HPC)
[11] = dose: 50.0 mg/kg/injection, schedule: Q01DX005 (ip), vehicle: saline
[12] = dose: 60.0 mg/kg/injection, schedule: Q01DX005 (ip), vehicle: saline with Tween-80
[13] = dose: 120.0 mg/kg/injection, schedule: Q01DX005 (ip), vehicle: saline with Tween-80
[14] = dose: 240.0 mg/kg/injection, schedule: Q01DX005 (ip), vehicle: saline with Tween-80
[15] = dose: 50.0 mg/kg/injection, schedule: Q01DX009 (ip), vehicle: Klucel (hydroxypropylcellulose) (HPC)
[16] = dose: 200.0 mg/kg/injection, schedule: Q01DX009 (ip), vehicle: Klucel (hydroxypropylcellulose) (HPC)
[17] = dose: 25.0 mg/kg/injection, schedule: Q01DX009 (ip), vehicle: Klucel (hydroxypropylcellulose) (HPC)
[18] = dose: 50.0 mg/kg/injection, schedule: Q01DX005 (ip), vehicle: saline with Tween-80
[19] = dose: 100.0 mg/kg/injection, schedule: Q01DX005 (ip), vehicle: saline with Tween-80

Measured: T/C

O=S(=O)(Cl)C(Cl)(Cl)Cl
inactive: dose: 25.0 mg/kg/injection, schedule: Q01DX009 (ip), vehicle: saline sonified 95 % of control | dose: 50.0 mg/kg/injection, schedule: Q01DX009 (ip), vehicle: saline sonified 100 % of control | dose: 100.0 mg/kg/injection, schedule: Q01DX009 (ip), vehicle: saline sonified 86 % of control

Cc1ccc(NC(=O)Oc2ccc(OCc3ccccc3)cc2)c([N+](=O)[O-])c1
inactive: [1] 99 % of control | [2] 97 % of control | [3] 95 % of control

Oc1ccc(N=Cc2ccc(OCc3ccccc3)cc2)cc1
inactive: [1] 97 % of control | [2] 93 % of control | [3] 93 % of control

OC1(C#Cc2ccccc2)c2ccccc2C(O)(C#Cc2ccccc2)c2c(C#Cc3ccccc3)cccc21 (stereo not given)
inactive: [4] 87 % of control | [5] 95 % of control | [1] 97 % of control | [3] 86 % of control

COc1cc2c(c3c1c(=S)c1ccccc1n3C)C=CC(C)(C)O2
inactive: [6] 98 % of control | [7] 98 % of control | [8] 108 % of control

CC(=O)OC[C@]12CCC(C)=CC1O[C@@H]1C(OC(C)=O)[C@@H](O)[C@@]2(C)[C@]12CO2 (stereo not given in full)
active: dose: 4.0 mg/kg/injection, schedule: Q01DX009 (ip), vehicle: saline 165 % of control
inactive: dose: 0.5 mg/kg/injection, schedule: Q01DX009 (ip), vehicle: saline 116 % of control

CCSC(=O)OCC(F)([N+](=O)[O-])[N+](=O)[O-]
inactive: dose: 100.0 mg/kg/injection, schedule: Q04DX003 (ip), vehicle: saline 108 % of control | dose: 200.0 mg/kg/injection, schedule: Q04DX003 (ip), vehicle: saline 100 % of control | dose: 400.0 mg/kg/injection, schedule: Q04DX003 (ip), vehicle: saline 104 % of control

C=C1C(=O)OC2/C=C(\CO)C(OC(C)=O)CC(O)/C(C)=C/C(OC(=O)C(C)CC)C12 (stereo not given)
inactive: dose: 6.25 mg/kg/injection, schedule: Q01DX009 (ip), vehicle: Klucel (hydroxypropylcellulose) (HPC) 111 % of control | [9] 119 % of control | [10] 121 % of control

O=C1C(=C(Cl)Cl)C(=O)c2ccccc21
inactive: dose: 12.5 mg/kg/injection, schedule: Q01DX005 (ip), vehicle: saline 103 % of control | dose: 25.0 mg/kg/injection, schedule: Q01DX005 (ip), vehicle: saline 100 % of control | [6] 91 % of control | [11] 95 % of control

CC1(C)NN=C([N+](=O)[O-])C1c1ccccc1 (stereo not given)
inactive: [12] 107 % of control | [13] 111 % of control | [14] 107 % of control

CCc1cccc(CC)c1NC(=O)c1ccc(C)cc1
inactive: [12] 91 % of control | [13] 86 % of control

O=C1NCC(N2C(=O)CC3(CCCC3)C2=O)O1 (stereo not given)
inactive: [15] 100 % of control | [10] 94 % of control | [16] 91 % of control

CC1CCN(C(=O)Nc2c(Cl)cccc2Cl)CC1
inactive: dose: 60.0 mg/kg/injection, schedule: Q01DX005 (ip), vehicle: Klucel (hydroxypropylcellulose) (HPC) 99 % of control | dose: 120.0 mg/kg/injection, schedule: Q01DX005 (ip), vehicle: Klucel (hydroxypropylcellulose) (HPC) 101 % of control | dose: 240.0 mg/kg/injection, schedule: Q01DX005 (ip), vehicle: Klucel (hydroxypropylcellulose) (HPC) 94 % of control

CCCCCC1C(=O)CNC1(C(=O)OCC)C(=O)OCC (stereo not given)
inactive: [9] 104 % of control | [17] 108 % of control | [15] 104 % of control | [10] 88 % of control | [16] 89 % of control

O=c1sc2ccccc2nc1NNc1ccccc1
inactive: [18] 90 % of control | [19] 90 % of control

Nc1nc2c(s1)CCC2
inactive: [1] 118 % of control | [2] 104 % of control | [3] 93 % of control

O=C(/C=C/c1ccc(Cl)c(Cl)c1)/C=C/c1ccc(Cl)c(Cl)c1
inactive: [1] 87 % of control | [2] 100 % of control | [3] 87 % of control

CC(=O)OCc1cocc1COC(C)=O
inactive: [6] 100 % of control and 103 % of control | [7] 107 % of control and 98 % of control | [8] 117 % of control and 94 % of control

O=C(C(=O)C(Br)Br)C(Br)Br
inactive: dose: 1.56 mg/kg/injection, schedule: Q01DX009 (ip), vehicle: DMSO 99 % of control | dose: 3.12 mg/kg/injection, schedule: Q01DX009 (ip), vehicle: DMSO 103 % of control | dose: 6.25 mg/kg/injection, schedule: Q01DX009 (ip), vehicle: DMSO 99 % of control

C/C(=N\N=C\N(C)S(=O)(=O)c1ccc(C)cc1)c1ccccc1
inactive: [6] 104 % of control | [7] 98 % of control | [8] 95 % of control

Nc1nc(F)nc2c1ncn2C1OC(COP(=O)(O)O)C(O)C1O (stereo not given)
inactive: [9] 110 % of control | [17] 117 % of control | [15] 120 % of control | dose: 50.0 mg/kg/injection, schedule: Q04DX002 (ip), vehicle: saline 100 % of control | dose: 100.0 mg/kg/injection, schedule: Q04DX002 (ip), vehicle: saline 107 % of control | dose: 200.0 mg/kg/injection, schedule: Q04DX002 (ip), vehicle: saline 111 % of control and 117 % of control | dose: 400.0 mg/kg/injection, schedule: Q04DX002 (ip), vehicle: saline 123 % of control
active: [10] 153 % of control and 165 % of control | dose: 175.0 mg/kg/injection, schedule: Q01DX009 (ip), vehicle: saline 203 % of control and 213 % of control | dose: 200.0 mg/kg/injection, schedule: Q01DX009 (ip), vehicle: saline 222 % of control and 224 % of control | dose: 225.0 mg/kg/injection, schedule: Q01DX009 (ip), vehicle: saline 230 % of control and 233 % of control | dose: 250.0 mg/kg/injection, schedule: Q01DX009 (ip), vehicle: saline 236 % of control and 241 % of control | dose: 1500.0 mg/kg/injection, schedule: Q01DX001 (ip), vehicle: saline 155 % of control | dose: 1600.0 mg/kg/injection, schedule: Q04DX002 (ip), vehicle: saline 182 % of control
111 % of control and 215 % of control: [16]

CCN(CC)CCCC(C)NCC(O)c1cc(-c2ccc(Cl)cc2)nc2ccccc12 (stereo not given)
inactive: [18] 107 % of control | [19] 112 % of control

N=c1nc(-c2ccccc2)c(-c2ccccc2)nn1CC(=O)c1ccccc1
inactive: [6] 112 % of control | [7] 101 % of control | [8] 94 % of control

CCCCN(CCCC)CC(O)c1cc2ccc(C(F)(F)F)cc2c2cc(C(F)(F)F)ccc12 (stereo not given)
inactive: dose: 6.25 mg/kg/injection, schedule: Q01DX009 (ip), vehicle: saline with Tween-80 93 % of control | [4] 94 % of control | [5] 88 % of control | [2] 100 % of control | [3] 99 % of control

O=C1CSC(c2cccc(F)c2)N1c1nncs1 (stereo not given)
inactive: [12] 98 % of control | [13] 105 % of control | [14] 106 % of control

COc1cc[c]([Sn]([O][Sn]([Cl])([c]2ccc(OC)cc2)[c]2ccc(OC)cc2)[c]2ccc(OC)cc2)cc1
inactive: dose: 3.12 mg/kg/injection, schedule: Q01DX005 (ip), vehicle: Klucel (hydroxypropylcellulose) (HPC) 97 % of control | dose: 6.25 mg/kg/injection, schedule: Q01DX005 (ip), vehicle: Klucel (hydroxypropylcellulose) (HPC) 116 % of control and 92 % of control | dose: 12.5 mg/kg/injection, schedule: Q01DX005 (ip), vehicle: Klucel (hydroxypropylcellulose) (HPC) 111 % of control | dose: 25.0 mg/kg/injection, schedule: Q01DX005 (ip), vehicle: Klucel (hydroxypropylcellulose) (HPC) 120 % of control

COc1cc2c(cc1OC)CC[N+](CCC[N+](C)(C)C)=C2
inactive: dose: 12.5 mg/kg/injection, schedule: Q01DX009 (ip), vehicle: saline 104 % of control | dose: 25.0 mg/kg/injection, schedule: Q01DX009 (ip), vehicle: saline 95 % of control | dose: 50.0 mg/kg/injection, schedule: Q01DX009 (ip), vehicle: saline 97 % of control | dose: 100.0 mg/kg/injection, schedule: Q01DX009 (ip), vehicle: saline 89 % of control

COc1ccc2c(c1OC)C(=O)OC2C(=O)NCCc1ccc2c(c1)OCO2 (stereo not given)
inactive: [6] 92 % of control | [7] 92 % of control | [8] 93 % of control

c1ccc(CON(CCc2ccncc2)CCc2ccncc2)cc1
inactive: [11] 97 % of control | dose: 100.0 mg/kg/injection, schedule: Q01DX005 (ip), vehicle: saline 103 % of control | dose: 200.0 mg/kg/injection, schedule: Q01DX005 (ip), vehicle: saline 101 % of control

NNC(=O)C(=O)Nc1ccc(F)cc1
inactive: [1] 96 % of control | [2] 100 % of control
